Measurements taken from patent EP1187837B1, “THIAZEPINE INHIBITORS OF HIV-1 INTEGRASE” (THE UNITED STATES GOVERNMENT as represented by THE …, priority 1999, dated 2000).
“And” between values parts separate entries of the source, which are not always exact repeats. Equal entries are not always repeated. Where two headings read alike, the source gives them in different places.

How the values were obtained:
HIV-1 infected CEM cells = assay: Anti-HIV assay in cultured CEM cells (NCI Antiviral Drug Screen, XTT formazan); format: cell-based
Description: (§1) The anti-HIV drug testing was performed at NCI based on a protocol described by Weislow et al.^36 All compounds were dissolved in dimethyl sulfoxide and diluted 1:100 in cell culture medium. Exponentially growing T4 lymphocytes (CEM cell line) were added at 5000 cells per well. Frozen virus stock solutions were thawed immediately before use, suspended in complete medium to yield the desired multiplicity of infection (m. o. i. ≈ 0.1), and added to the microtiter wells, resulting in a 1:200 final dilution of the compound. Uninfected cells with the compound served as a toxicity control, and infected and uninfected cells without the compound served as basic controls.
(§2) Cultures were incubated at 37°C in a 5% CO2 atmosphere for 6 days. The tetrazolium salt, XTT was added to all wells, and cultures were incubated to allow formazan color development by viable cells. Individual wells were analyzed spectrophotometrically to quantitate formazan production, and in addition were viewed microscopically for detection of viable cells and confirmation of protective activity.

[1] = Cytotoxicity control in uninfected CEM cells (XTT formazan); format: cell-based; conditions: human, read-out: Cell data (µM) CC50: 50% cytotoxic concentration; for CC50 at 6 days: uninfected T4 lymphocytes (CEM cell line); for CC50 at 144 h: 6 days
Description: as §1, §2

[2] = biological target: T1, purified human immunodeficiency virus type-1 integrase (HIV-1 IN) (Human immunodeficiency virus type 1 group M subtype B, UniProt P12497); assay: biochemical;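 note: enzyme at 200 nM preincubated with inhibitor 30 min at 30°C, then 20 nM labeled 21-mer DNA for 1 h, inhibition relative to enzyme without drug, background from DNA alone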
Description: (§3) The HPLC purified oligonucleotides AE117 (5'-[sequence]-3'); AE118 (5'-[sequence]-3'); AE157 (5'-[sequence]-3'); AE146 (5'-[sequence]-3'); AE156 (5'-[sequence]-3'); RM22M (5'-[sequence]-3'); and RMAB2 (5'-[sequence]-3') were purchased from Midland Certified Reagent Company (Midland, TX). An expression system for the wild-type integrase and the IN^50-212 (F185K) were obtained from the Laboratory of Molecular Biology, NIDDK, NIH, Bethesda, MD.
(§4) To analyze the extent of 3'-processing and strand transfer using 5'-end labeled substrates, AE118 was 5'-end labeled using T4 polynucleotide kinase (Gibco BRL) and γ[^32P]-ATP (Dupont-NEN). […] The kinase was heat-inactivated and AE117 was added to the same final concentration. The mixture was heated at 95°C, allowed to cool slowly to room temperature, and run through a G-25 Sephadex quick spin column (Boehringer Mannheim, Indianapolis, IN) to separate annealed double-stranded oligonucleotide from unincorporated label.
(§5) To determine the extent of 3'-processing and strand transfer, integrase was preincubated at a final concentration of 200 nM with the inhibitor in a reaction buffer (50 mM NaCl, 1 mM HEPES, pH 7.5, 50 µM EDTA, 50 µM dithiothreitol, 10% glycerol (w/v), 7.5 mM MnCl2, 0.1 mg/ml bovine serum albumin, 10 mM 2-mercaptoethanol, 10% dimethyl sulfoxide, and 25 mM MOPS, pH 7.2) at 30°C for 30 minutes. Then, 20 nM of the 5'-end ^32P-labeled linear oligonucleotide substrate was added, and incubation was continued for an additional one hour. Reactions were quenched by the addition of an equal volume (16 µl) of loading dye (98% deionized formamide, 10 mM EDTA, 0.025% xylene cyanol and 0.025% bromophenol blue). An aliquot (5 µl) was electrophoresed on a denaturing 20% polyacrylamide gel (0.09 M tris-borate pH 8.3, 2 mM EDTA, 20% acrylamide, 8M urea).
(§6) Gels were dried, exposed in a PhosphorImager cassette, and analyzed using a Molecular Dynamics PhosphorImager (Sunnyvale, CA). Percent inhibition was calculated using the following equation: %I = 100 X [1-(D-C)/(N-C)] [formula] where C, N, and D are the fractions of 21-mer substrate converted to 19-mer (3'-processing product) or strand transfer products for DNA alone (C), DNA plus integrase (N), and integrase plus drug (D). All IC50 values were determined by plotting the drug concentration versus percent inhibition, and determining the concentration which produced 50% inhibition.

[3] = biological target: T1, purified human immunodeficiency virus type-1 integrase (HIV-1 IN); assay: Integrase assay: 3'-processing and strand transfer (3'-end joining), 32P-labeled oligonucleotide, gel/PhosphorImager, Mn2+ cofactor; conditions: purified IN 200 nM, 7.5 mM MnCl2, 30°C;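 note: enzyme at 200 nM preincubated with inhibitor 30 min at 30°C, then 20 nM labeled 21-mer DNA for 1 h, inhibition relative to enzyme without drug, background from DNA alone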
Description: as §3, §4, §5, §6

HIV-1 IN = biological target: T2, HIV-1 IN (Human immunodeficiency virus type 1 group M subtype B, UniProt P12497); assay: Integrase assay with Mg+2 as cofactor; format: biochemical; conditions: compared with Mn+2
T2 construct: An expression system for the wild-type integrase; made in house
Description: A 21-mer oligonucleotide corresponding to the last 21 bases on the HIV-1 viral DNA in the U5 region of long terminal repeat (LTR) was radiolabeled with ^32P. This is shown in the Figs. 2 and 3 as a band corresponding to DNA alone. Integrase will cleave the last two bases of this DNA in the presence of Mn^+2 or Mg^+2 to give a 19-mer DNA substrate (lane 2) which runs faster on the gel and is indicated as 19-mer on the Figures. When an inhibitor is added this process is blocked, therefore the original 21-mer DNA would not be cut. When an inhibitor is added at various concentrations, percent inhibition at every concentration will be calculated by quantification of the intensity of each band using an Imagequant program.
The gels are run using polyacrylamide according to the standard procedures. Upon completion of electrophoresis run, the gels are dried and exposed to a phosphorimager cassette. The cassettes are analyzed by the phosphorimager, and the bands are shown on a computer screen. The intensity of each band is quantitated, plotted against concentrations of drugs, and the IC50 values are calculated from the graphs.

[4] = biological target: T1, purified human immunodeficiency virus type-1 integrase (HIV-1 IN)
Description: as §3, §4, §5, §6

[5] = Human immunodeficiency virus 1, CCRF-CEM, 144 h, HIV-1 infected CEM cells, 6 days, XTT, read-out: Cell data (µM) EC60: 50% effective concentration
[6] = Integrase Assay IC50 (µM) 3'-Processing
[7] = Human immunodeficiency virus 1, CCRF-CEM, 144 h, read-out: Cell data (µM) EC60: 50% effective concentration, HIV-1 infected CEM cells, 6 days, XTT
[8] = read-out: Integrase Assay IC50 (µM) 3'-Processing

Row | SMILES | IC50 [2] | IC50 [3, 6] | EC50 (HIV-1 infected CEM cells; [7]) | further results
1 | O=C1Sc2ccc(Cl)cc2C(=O)N2CCSC12 (racemic) [Compound 2, (±)-7-Chloro-2,3-dihydro-5H-thiazolo[2,3-c][1,4]benzothiazepine-5,11 (11aH)-dione] | 120 µM and 60 µM | 151 µM and 105 µM |  | EC50 (HIV-1 infected CEM cells; [5]): > 50 µM; CC50 at 6 days [1]: > 50 µM
2 | O=C1Sc2ccc(Br)cc2C(=O)N2CCSC12 (racemic) [Compound 3, (±)-7-Bromo-2,3-dihydro-5H-thiazolo[2,3-c][1,4]benzothiazepine-5,11 (11aH)-dione] | 48 ± 18 µM | 58 ± 15 µM |  | 
3 | O=C1Sc2ccccc2C(=O)N2CSCC12 (racemic) [Compound 5] |  |  | > 200 µM | 
4 | O=C1Sc2ccc(Cl)cc2C(=O)N2CSCC12 (racemic) [Compound 6, (±)-7-Chloro-1,11a-dihydro-3H,5H,11H-thiazolo[4,3-c][1,4] benzothiazepine-5,11-dione] | 160 µM and 110 µM | 158 µM and 111 µM |  | EC50 (HIV-1 infected CEM cells; [5]): > 100 µM; CC50 at 6 days [1]: > 100 µM
5 | O=C1Sc2ccc(Br)cc2C(=O)N2CSCC12 (racemic) [Compound 7, (±)-7-Bromo-1,11a-dihydro-3H,5H,11H-thiazolo[4,3-c][1,4] benzothiazepine-5,11-dione] | 74 ± 32 µM | 87 ± 24 µM |  | EC50 (HIV-1 infected CEM cells; [5]): > 200 µM; CC50 at 6 days [1]: > 200 µM
6 | Cc1ccc2c(c1)C(=O)N1CSCC1C(=O)S2 (racemic) [Compound 8, (±)-1,11a-Dihydro-7-methyl-3H,5H,11H-thiazolo[4,3-c][1,4] benzothiazepine-5,11-dione] | 63 µM | 52 µM |  | CC50 at 6 days [1]: 35 µM
7 | O=C1Sc2cc([N+](=O)[O-])ccc2C(=O)N2CSCC12 (racemic) [Compound 9, (±)-1,11a-Dihydro-8-nitro-3H,5H,11H-thiazolo[4,3-c][1,4] benzothiazepine-5,11-dione] | 100 ± 36 µM | 90 ± 27 µM |  | EC50 (HIV-1 infected CEM cells; [5]): > 50 µM; CC50 at 6 days [1]: > 50 µM
8 | COc1ccc2c(c1)C(=O)N1CSCC1C(=O)S2 (racemic) [Compound 10, (±)-1,11a-dihydro-7-methoxy-3H,5H,11H-thiazolo[4,3-c][1,4]benzothiazepine-5,11-dione] | 155 µM and 245 µM | 155 µM and 275 µM |  | EC50 (HIV-1 infected CEM cells; [5]): > 200 µM; CC50 at 6 days [1]: > 200 µM
9 | O=C1Sc2ccccc2C(=O)N2COCC12 (racemic) [Compound 12, (±)-1,11a-Dihydro-3H,5H,11H-oxazolo[4,3-c][1,4]benzothiazepine-5,11-dione] | > 333 µM | > 333 µM |  | 
10 | Cc1ccc2c(c1)C(=O)N1CC[S@@+]([O-])[C@@H]1C(=O)S2 (racemic) [Compound 15, (±)-cis-2,3-Dihydro-7-methyl-5H-thiazolo[2,3-c][1,4]benzothiazepme-5,11 (11aH)-dione 1-Oxide] |  |  | > 100 µM | CC50 at 144 h [1]: > 100 µM
11 | O=C1Sc2cc3ccccc3cc2C(=O)N2CCSC12 (racemic) [Compound 19, (±)-2,3-Dihydro-5H-naphto[2,3-f]thiazolo[2,3-c][1,4]thiazepine-5,13(13aH)-dione] |  |  | 60 µM | inhibition of IN in the presence of Mg+2 (HIV-1 IN): active in the presence of Mg^+2 within the same concentration range as in Mn^+2
12 | O=C1Sc2cc3ccccc3cc2C(=O)N2CSCC12 (racemic) [Compound 20, (±)-1,13a-Dihydro-3H,5H,11H-naphto[2,3-f]thiazolo[4,3-c][1,4] thiazepine-5,13-dione] |  |  | 279 to 286 µM | inhibition of IN in the presence of Mg+2 (HIV-1 IN): active in the presence of Mg^+2 within the same concentration range as in Mn^+2
13 | O=C1c2ccccc2SC(O)(c2ccccc2)C2CCCN12 (racemic) [Compound 26, (±)-2,3,11,11a-Tetrahydro-11-hydroxy-11-phenyl-1H,5H-pyrrolo [2,1-c][1,4]benzothiazepin-5-one] | > 1000 µM | > 1000 µM |  | 
14 | CN1CCN([C@@H]2Sc3ccccc3C(=O)N3CCC[C@@H]23)CC1 (racemic) [Compound 27, (±)-cis-2,3,11,11a-Tetrahydro-11-(4-methylpiperazin-1-yl)-1H,5H-pyrrolo[2,1-c][1,4]benzothiazepin-5-one] | > 1000 µM | > 1000 µM |  | EC50 (HIV-1 infected CEM cells; [5]): > 125 µM; CC50 at 6 days [1]: > 125 µM
15 | CN1CCN(Cc2ccc3n2Cc2ccccc2SC3c2ccccc2)CC1 (racemic) [Compound 31, (±)-3-[(4-Methylpiperazin-1-yl)methyl]-11-phenyl-5H,11H-pyrrolo [2,1-c][1,4]benzothiazepine] | > 1000 µM | > 1000 µM |  | 
16 | O=C1Sc2ccccc2C(=O)N2CCSC12 (centres unmarked) [Compound 1] |  |  | 107 ± 26 µM | EC50 (HIV-1 infected CEM cells; HIV-1 infected CEM cells, 6 days, XTT, read-out: Cell data (µM) EC60: 50% effective concentration): 107 µM; inhibition of IN in the presence of Mg+2 (HIV-1 IN): active in the presence of Mg^+2 within the same concentration range as in Mn^+2
17 | COc1cc2c(cc1OC)C(=O)N1CSCC1C(=O)S2 (centres unmarked) [Compound 11] |  |  | > 50 µM | 
18 | COc1cc2c(cc1OC)C(=O)N1CCCC1C(=O)S2 (centres unmarked) [Compound 13] |  |  | > 200 µM | IC50 [4]: > 1000 µM; IC50 [3, 8]: > 1000 µM
19 | O=C1Sc2ccccc2C(=O)N2CCCCC12 (centres unmarked) [Compound 14] |  |  | > 200 µM | 
20 | CC(=O)OC1Sc2ccccc2C(=O)N2CCCC12 (centres unmarked) [Compound 21] |  |  | > 200 µM | IC50 [4]: > 1000 µM; IC50 [3, 8]: > 1000 µM
21 | COC1Sc2ccccc2C(=O)N2CCCC12 (centres unmarked) [Compound 22] | > 1000 µM | > 1000 µM | > 200 µM | CC50 at 144 h [1]: > 200 µM
22 | O=C1c2ccccc2SCC2CSC(c3ccccc3)N12 (centres unmarked) [Compound 23] | 288 µM | 111 µM |  | 
23 | COc1cc2c(cc1OC)C(=O)N1CCCC1CS2 (centres unmarked) [Compound 24] |  |  | > 200 µM | IC50 [4]: > 1000 µM; IC50 [3, 8]: > 1000 µM
24 | O=C1c2ccccc2SC(O)C2CCCN12 (centres unmarked) [Compound 25] |  |  | > 200 µM | IC50 [4]: > 1000 µM; IC50 [3, 8]: > 1000 µM
25 | O=C1Sc2ccccc2Cn2cccc21 [Compound 28] |  |  | 146 µM | CC50 at 144 h [1]: > 200 µM
26 | CCOC(=O)C1Sc2ccccc2Cn2cccc21 (centres unmarked) [Compound 29] | > 1000 µM | > 1000 µM |  | 
27 | CN(C)Cc1ccc2n1Cc1ccccc1SC2c1ccc(F)cc1 (centres unmarked) [Compound 30] | > 1000 µM | > 1000 µM |  | 
